Data from patent publication US10780090B2, “Heteroaryl compounds useful as inhibitors of SUMO activating enzyme” (Millennium Pharmaceuticals, Inc., priority 2014, dated 2020).
pIC50: −log10 of the molar value.

Target: recombinant human SAE enzyme (Homo sapiens (Human), UniProt Q9UBT2)
Experiment: SAE HTRF enzyme assay
Assay type: biochemical
Conditions: for inhibition at 0.111 µM: read-out: Percent Inhibition; for pIC50: class symbols A/B/C
Procedure, shortened: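 0.11 nM SAE incubated with 0.5 μM ATP, 0.01 μM Ubc9-GST and 0.125 μM Sumo-Flag in HEPES pH 7.5, MgCl2, GSH, BSA, ±inhibitor, 105 min at 24° C. EDTA stop; Eu-cryptate anti-Flag/XL-APC anti-GST HTRF read after 2 h. Values given as single-concentration % inhibition or IC50.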

Chain of recombinant human SAE enzyme (Q9UBT2 whole entry): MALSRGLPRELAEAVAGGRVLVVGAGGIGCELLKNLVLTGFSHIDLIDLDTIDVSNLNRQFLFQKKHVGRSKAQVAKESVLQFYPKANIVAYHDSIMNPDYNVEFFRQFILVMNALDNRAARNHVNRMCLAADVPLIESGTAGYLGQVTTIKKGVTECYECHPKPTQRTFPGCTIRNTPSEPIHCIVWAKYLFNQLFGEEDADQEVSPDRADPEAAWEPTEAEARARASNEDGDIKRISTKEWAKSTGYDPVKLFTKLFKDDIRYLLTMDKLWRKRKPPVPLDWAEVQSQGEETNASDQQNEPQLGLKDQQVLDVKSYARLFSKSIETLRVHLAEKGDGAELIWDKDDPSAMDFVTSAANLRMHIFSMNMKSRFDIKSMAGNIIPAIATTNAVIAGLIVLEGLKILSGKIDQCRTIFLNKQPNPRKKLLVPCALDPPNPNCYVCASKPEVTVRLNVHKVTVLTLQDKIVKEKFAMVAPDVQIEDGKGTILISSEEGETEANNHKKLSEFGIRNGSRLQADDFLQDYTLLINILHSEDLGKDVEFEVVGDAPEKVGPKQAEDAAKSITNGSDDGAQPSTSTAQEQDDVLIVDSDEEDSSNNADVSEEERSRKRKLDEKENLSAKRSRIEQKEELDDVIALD
Chain of recombinant human SAE enzyme (Q9UBE0 whole entry partner): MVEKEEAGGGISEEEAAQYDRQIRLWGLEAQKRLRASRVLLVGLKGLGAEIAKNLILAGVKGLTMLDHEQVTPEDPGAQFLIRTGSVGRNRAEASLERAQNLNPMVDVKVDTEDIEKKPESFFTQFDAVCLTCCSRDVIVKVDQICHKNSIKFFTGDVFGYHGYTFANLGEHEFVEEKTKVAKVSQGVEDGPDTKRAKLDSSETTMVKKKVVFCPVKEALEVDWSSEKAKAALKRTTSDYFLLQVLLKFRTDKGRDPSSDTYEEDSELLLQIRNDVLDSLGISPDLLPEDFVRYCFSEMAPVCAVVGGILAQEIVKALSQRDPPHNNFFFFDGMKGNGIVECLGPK

Q: Which inhibition at 0.111 µM (Concentration 0.111 μM) does the source give for `Cc1sc(C(=O)c2cncnc2N[C@@H]2C[C@H](COS(N)(=O)=O)[C@@H](O)C2)cc1Sc1ccccc1` [I-137, {(1R,2S,4R)-2-hydroxy-4-[(5-{[5-methyl-4-(phenylsulfanyl)-2-thienyl]carbonyl}pyrimidin-4-yl)amino]cyclopentyl}methyl sulfamate] here?
A: The inhibition at 0.111 µM was 95%.

Q: Which results are given for `CN(Cc1csc(C(=O)c2cncnc2N[C@@H]2C[C@H](COS(N)(=O)=O)[C@@H](O)C2)c1)c1cccc(Cl)c1` [I-138, [(1R,2S,4R)-4-({5-[(4-{[(3-Chlorophenyl)(methyl)amino]methyl}-2-thienyl)carbonyl]pyrimidin-4-yl}amino)-2-hydroxycyclopentyl]methyl sulfamate]?
A: inhibition at 0.111 µM (Concentration 0.111 μM): 96%; pIC50: > 8.00

Q: `NS(=O)(=O)OC[C@H]1C[C@@H](Nc2ncncc2C(=O)c2cc(Cc3ccccc3)c(Cc3ccccc3)o2)C[C@@H]1O` [I-139, [(1R,2S,4R)-4-{[5-(4,5-dibenzyl-2-furoyl)pyrimidin-4-yl]amino}-2-hydroxycyclopentyl]methyl sulfamate] was tested. Which inhibition at 0.111 µM (Concentration 0.111 μM) did it give?
A: The inhibition at 0.111 µM was 94%.

Q: And the pIC50?
A: Its pIC50 is over 8.00.

Q: With `NS(=O)(=O)OC[C@H]1C[C@@H](Nc2ncncc2C(=O)c2cc(CC3=CCCCC3)cs2)C[C@@H]1O` [I-140, {(1R,2S,4R)-4-[(5-{[4-(Cyclohex-1-en-1-ylmethyl)-2-thienyl]carbonyl}pyrimidin-4-yl)amino]-2-hydroxycyclopentyl}methyl sulfamate] as the compound, how does the inhibition at 0.111 µM (Concentration 0.111 μM) read?
A: The inhibition at 0.111 µM was 93%.

Q: And the pIC50?
A: The pIC50 was over 8.00.

Q: Which inhibition at 0.111 µM (Concentration 0.111 μM) does the source give for `NS(=O)(=O)OC[C@H]1C[C@@H](Nc2ncncc2C(=O)c2cc(CO)c(Cc3cccc(Cl)c3)s2)C[C@@H]1O` [I-142, {(1R,2S,4R)-4-[(5-{[5-(3-chlorobenzyl)-4-(hydroxymethyl)-2-thienyl]carbonyl}pyrimidin-4-yl)amino]-2-hydroxycyclopentyl}methyl sulfamate] here?
A: The inhibition at 0.111 µM was 94%.

Q: What about the pIC50 of the same compound?
A: Its pIC50 is over 8.00.

Q: How did the inhibition at 0.111 µM (Concentration 0.111 μM) turn out when `Cc1sc(C(=O)c2cncnc2N[C@@H]2C[C@H](COS(N)(=O)=O)[C@@H](O)C2)cc1Sc1cccc(Cl)c1` [I-143, [(1R,2S,4R)-4-{[5-({4-[(3-chlorophenyl)sulfanyl]-5-methyl-2-thienyl}carbonyl)pyrimidin-4-yl]amino}-2-hydroxycyclopentyl]methyl sulfamate] was run?
A: The inhibition at 0.111 µM was 94%.

Q: And the pIC50?
A: Its pIC50 is over 8.00.

Q: How did the inhibition at 0.111 µM (Concentration 0.111 μM) turn out when `NS(=O)(=O)OC[C@H]1C[C@@H](Nc2ncncc2C(=O)c2cc(Cc3ccccc3)c(Cc3ccccc3)s2)C[C@@H]1O` [I-144, [(1R,2S,4R)-4-({5-[(4,5-Dibenzyl-2-thienyl)carbonyl]pyrimidin-4-yl}amino)-2-hydroxycyclopentyl]methyl sulfamate] was run?
A: Its inhibition at 0.111 µM is 93%.

Q: What about the pIC50 of the same compound?
A: Its pIC50 is over 8.00.

Q: What does the source list for `Cc1sc(C(=O)c2cncnc2N[C@@H]2C[C@H](COS(N)(=O)=O)[C@@H](O)C2)cc1Sc1cccc(C(F)(F)F)c1` [I-145, [(1R,2S,4R)-2-hydroxy-4-({5-[(5-methyl-4-{[3-(trifluoromethyl)phenyl]sulfanyl}-2-thienyl)carbonyl]pyrimidin-4-yl}amino)cyclopentyl]methyl sulfamate]?
A: inhibition at 0.111 µM (Concentration 0.111 μM): 93%; pIC50: > 8.00

Q: With `NS(=O)(=O)OC[C@H]1C[C@@H](Nc2ncncc2C(=O)c2cc(CCc3cccc(Cl)c3)cs2)C[C@@H]1O` [I-146, [(1R,2S,4R)-4-{[5-({4-[2-(3-chlorophenyl)ethyl]-2-thienyl}carbonyl)pyrimidin-4-yl]amino}-2-hydroxycyclopentyl]methyl sulfamate] as the compound, how does the inhibition at 0.111 µM (Concentration 0.111 μM) read?
A: Its inhibition at 0.111 µM is 94%.

Q: And the pIC50?
A: The pIC50 was over 8.00.

Q: For `NS(=O)(=O)OC[C@H]1C[C@@H](Nc2ncncc2C(=O)c2cc(CSc3ccccc3Cl)cs2)C[C@@H]1O` [I-147, [(1R,2S,4R)-4-({5-[(4-{[(2-chlorophenyl)sulfanyl]methyl}-2-thienyl)carbonyl]pyrimidin-4-yl}amino)-2-hydroxycyclopentyl]methyl sulfamate], which inhibition at 0.111 µM (Concentration 0.111 μM) is on record?
A: The inhibition at 0.111 µM was 94%.

Q: And the pIC50?
A: The pIC50 was over 8.00.

Q: What does the source list for `Cc1sc(C(=O)c2cncnc2N[C@@H]2C[C@H](COS(N)(=O)=O)[C@@H](O)C2)cc1Cn1cc(Br)cc1C#N` [I-148, [(1R,2S,4R)-4-{[5-({4-[(4-bromo-2-cyano-1H-pyrrol-1-yl)methyl]-5-methyl-2-thienyl}carbonyl)pyrimidin-4-yl]amino}-2-hydroxycyclopentyl]methyl sulfamate]?
A: inhibition at 0.111 µM (Concentration 0.111 μM): 91%; pIC50: > 8.00

Q: For `NS(=O)(=O)OC[C@H]1C[C@@H](Nc2ncncc2C(=O)c2cc(Cc3cccc(Cl)c3Cl)cs2)C[C@@H]1O` [I-155, {(1R,2S,4R)-4-[(5-{[4-(2,3-dichlorobenzyl)-2-thienyl]carbonyl}pyrimidin-4-yl)amino]-2-hydroxycyclopentyl}methyl sulfamate], which inhibition at 0.111 µM (Concentration 0.111 μM) is on record?
A: Its inhibition at 0.111 µM is 92%.

Q: And the pIC50?
A: Its pIC50 is over 8.00.

Q: What does the source list for `CCOc1ccccc1OCc1csc(C(=O)c2cncnc2N[C@@H]2C[C@H](COS(N)(=O)=O)[C@@H](O)C2)c1` [I-156, [(1R,2S,4R)-4-{[5-({4-[(2-ethoxyphenoxy)methyl]-2-thienyl}carbonyl)pyrimidin-4-yl]amino}-2-hydroxycyclopentyl]methyl sulfamate]?
A: inhibition at 0.111 µM (Concentration 0.111 μM): 92%; pIC50: > 8.00

Q: For `NS(=O)(=O)OC[C@H]1C[C@@H](Nc2ncncc2C(=O)c2cc(Cc3ccc(Cl)cc3)cs2)C[C@@H]1O` [I-157, {(1R,2S,4R)-4-[(5-{[4-(4-chlorobenzyl)-2-thienyl]carbonyl}pyrimidin-4-yl)amino]-2-hydroxycyclopentyl}methyl sulfamate], which inhibition at 0.111 µM (Concentration 0.111 μM) is on record?
A: The inhibition at 0.111 µM was 92%.

Q: `NS(=O)(=O)OC[C@H]1C[C@@H](Nc2ncncc2C(=O)c2ccc(-c3ccccc3Cl)o2)[C@H](O)[C@@H]1O` [I-158, [(1R,2R,3S,4R)-4-({5-[5-(2-chlorophenyl)-2-furoyl]pyrimidin-4-yl}amino)-2,3-dihydroxycyclopentyl]methyl sulfamate] was tested. Which inhibition at 0.111 µM (Concentration 0.111 μM) did it give?
A: Its inhibition at 0.111 µM is 86%.

Q: Which results are given for `Cc1sc(C(=O)c2cncnc2N[C@@H]2C[C@H](COS(N)(=O)=O)[C@@H](O)C2)cc1CN1CCc2cc(Cl)ccc21` [I-159, [(1R,2S,4R)-4-{[5-({4-[(5-chloro-2,3-dihydro-1H-indol-1-yl)methyl]-5-methyl-2-thienyl}carbonyl)pyrimidin-4-yl]amino}-2-hydroxycyclopentyl]methyl sulfamate]?
A: inhibition at 0.111 µM (Concentration 0.111 μM): 91%; pIC50: > 8.00

Q: How did the inhibition at 0.111 µM (Concentration 0.111 μM) turn out when `Cc1nn(Cc2csc(C(=O)c3cncnc3N[C@@H]3C[C@H](COS(N)(=O)=O)[C@@H](O)C3)c2)c2cnccc12` [I-160, [(1R,2S,4R)-2-hydroxy-4-{[5-({4-[(3-methyl-1H-pyrazolo[3,4-c]pyridin-1-yl)methyl]-2-thienyl}carbonyl)pyrimidin-4-yl]amino}cyclopentyl]methyl sulfamate] was run?
A: Its inhibition at 0.111 µM is 92%.

Q: What about the pIC50 of the same compound?
A: Its pIC50 is over 8.00.

Q: What does the source list for `NS(=O)(=O)OC[C@H]1C[C@@H](Nc2ncncc2C(=O)c2cc(COc3ccccc3I)cs2)C[C@@H]1O` [I-161, [(1R,2S,4R)-2-Hydroxy-4-{[-({4-(2-iodophenoxy)methyl]-2-thienyl}carbonyl)pyrimidin-4-yl]amino}cyclopentyl]methyl sulfamate]?
A: Percent Inhibition (Concentration 0.111 μM): 91; pIC50: > 8.00

Q: Which results are given for `NS(=O)(=O)OC[C@H]1C[C@@H](Nc2ncncc2C(=O)c2cc(Cc3ccccc3)c(Cl)s2)[C@@H](F)[C@@H]1O` [I-162, [(1R,2R,3R,4R)-4-({5-[(4-Benzyl-5-chloro-2-thienyl)carbonyl]pyrimidin-4-yl}amino) 3-fluoro-2-hydroxycyclopentyl]methyl sulfamate]?
A: inhibition at 0.111 µM (Concentration 0.111 μM): 91%; pIC50: 7.00 to 8.00
